Converted amounts (≈) assume the structure as drawn. Like-named read-outs stand apart in the source and are kept apart here.
Columns and labels:
[1] = tested on: C. difficile NAP1/027 CD26A54_R; assay: MIC broth microdilution, metronidazole resistant C. difficile CD26A54_R; assay type: cell-based, Clostridium difficile; conditions: Clostridioides difficile
[2] = tested on: E. histolytica HM1:IMSS trophozoites; assay: ATP-bioluminescence growth and survival assay, E. histolytica; assay type: cell-based, Entamoeba histolytica; conditions: Entamoeba histolytica; MtzS, 48 h, anaerobic, n = 3
Protocol: Compounds were tested for antiparasitic activity against E. histolytica (HM1:1MSS strain) and G. lamblia (WB, BRIS/87/HEPU/713 (713), BRIS/83/HEPU/106 (106) and the metronidazole resistant syngeneic line 713-M3 [[15,16]]) using an ATP-bioluminescence based screen for cell growth and survival [[17,18]]. Assay plates were inoculated with trophozoites (5 × 10^3 parasites/well) and incubated in the GasPak™ EZ Anaerobe Gas Generating Pouch Systems (VWR, West Chester, PA) to maintain anaerobic conditions throughout the incubation period. The assays were performed in triplicate using the CellTiter-Glo Luminescent Cell Viability Assay. Metronidazole was used as a positive control.
Trophozoites of E. histolytica strain HM1:IMSS and G. lamblia strains WB, BRIS/87/HEPU/713 (713),^10 BRIS/83/HEPU/106 (106)^11 and the metronidazole resistant syngenic line 713-M3^10,11 were axenically maintained in TYI-S-33 medium supplemented with penicillin (100 U/ml), streptomycin (100 µg/ml).^12 E. histolytica and G. lamblia trophozoites were counted using a particle counter (Beckman Coulter, Fullerton, CA). All experiments were performed using trophozoites harvested during the logarithmic phase of growth.
A three-fold serial dilution was then performed yielding a concentration range 0.25-625 µM. From this dilution plate, 4 µL were transferred into the 96-well screen plates followed by addition of 96 µL of trophozoites (5,000 parasites) to yield a final 8-point concentration range spanning 0.01- 25 µM. Assay plates were incubated for 48 h at 37 °C in the GasPak^TM EZ Anaerobe Gas Generating Pouch Systems (VWR, West Chester, PA) to maintain anaerobic condition throughout the incubation period. The assays were performed in triplicate using the CellTiter-Glo Luminescent Cell Viability Assay.^13

[3] = tested on: C. difficile NAP1/027 ATCC BAA-1803; assay: MIC broth microdilution, C. difficile NAP1/027 ATCC BAA-1803; assay type: cell-based, Clostridium difficile; conditions: Clostridioides difficile
Protocol: All compounds were tested for activity against a set of anaerobic C. difficile bacteria (630 ATCC BAA-1382, NAP1/027 M7404, NAP1/027 ATCC BAA-1803, VPI10463 ATCC 43255, CD26A54_S and CD26A54_R) and representative ESKAPE pathogens S. aureus (MRSA ATCC 43300), E. coli (ATCC 25922), K. pneumoniae (ATCC 700603), A. baumannii (ATCC 19606) and P. aeruginosa (ATCC 27853) using a standard broth microdilution assay. Selected compounds were tested for activity against H. pylori strains (26695, and clinical isolates MtzS 13/25, MtzR 98/285 and MtzR 13/61) using agar plate dilution, and for antimicrobial activity against […] Gram-positive bacterial strains: Enterococcus faecalis (VanA clinical isolate), Enterococcus faecium (MDR VanA ATCC 51559), Streptococcus pneumoniae (MDR ATCC 700677), S. aureus (MRSA ATCC 43300, MRSA clinical isolate, MRSA/DRSA clinical isolate, GISA NARSA NRS 1, GISA NARSA NRS 17, VRSA NARSA VRS1, VRSA NARSA VRS4 and VRSA NARSA VRS10) using broth microdilution. C. difficile strains were grown at 37 °C in a COY anaerobic chamber (5% H2, 10% CO2, 85% N2). H. pylori strains were grown at 37 °C under a microaerobic atmosphere (5% O2, 10% CO2). All facultative anaerobic bacteria were grown at 37 °C with normal atmospheric oxygen levels. All experiments were performed in duplicate with metronidazole, vancomycin, linezolid or colistin as positive controls for relevant strains (see Table 1). Positive growth control of bacteria and DMSO as well as a negative control of only media were included for every plate. Full assay details are provided in the supplementary information.
C. difficile ATCC BAA-1382, ATCC BAA-1803, ATCC 43255 and M7404 heat shocked spore stocks (10 µL) were transferred into the anaerobic chamber and 10 µL streaked onto pre-reduced (at least 2.5 hr in anaerobic chamber) BHIS agar plates supplemented with 0.1% w/v sodium taurocholate (BHIS(TA)). Plates were incubated for 24 hours prior to assay to give colonies of size 1-3mm diameter with characteristic uneven borders.
The minimum inhibition concentration was determined according to the CLSI Methods with modifications in broth and inoculum for C. difficile according to Babakhani et al.^7,8 Briefly, compounds were prepared to 20X final concentration in 100% water, 60% DMSO and 40% water or 60% DMSO and 40% media. The compounds along with standard antibiotics were serially diluted two-fold across the wells of 96-well non-binding surface plates (Non binding surface, Corning). The plates were placed in the anaerobic chamber overnight to reduce. C. difficile bacteria from BHIS(TA) agar plates were cultured anaerobically in BHIS at 37 °C overnight. A sample of culture was then diluted 40-fold in BHIS broth and incubated at 37 °C for approximately 4.5 hrs. The resultant mid-log phase culture (OD600= 0.5-0.6) was diluted to the final concentration of ~1×10^6 CFU/mL, then 50 µL was added to each well of the compound-containing 96-well plates. This gave final cell concentration of 5×10^5 CFU/mL, final volume 100 µL and 3% maximum DMSO concentration. Compound concentration was typically from 64 to 0.03 µg/mL. An antibiotic standard was included on each 96 well plate as well as a positive growth control (no compound) and sterility control (no bacteria). […] MICs were the lowest concentration showing no visible growth.

[4] = 24 hr incubation, read-out: MIC C. difficile NAP1/027 CD26A54_R 24 hr
[5] = CD26A54_R, MtzR, 48 h growth, BHIS broth, n = 8, read-out: MIC C. difficile NAP1/027 CD26A54_R 48 h
[6] = ATCC 43255 / ATCC BAA-1803, NAP1/027 (footnote c: ATCC 43255), MtzS, 24 h, median of at least n = 4, read-out: MIC C. difficile NAP1/027 (footnote c)
[7] = ATCCBAA1803, 24 hr incubation, read-out: MIC C. difficile NAP1/027 ATCC BAA-1803 24 hr
[8] = ATCCBAA1803, 48 hr incubation, read-out: MIC C. difficile NAP1/027 ATCC BAA-1803 48 hr

| SMILES | MIC [1, 4] | MIC [1, 5] | EC50 [2] | MIC [3, 6] | MIC [3, 7] | MIC [3, 8] |
| --- | --- | --- | --- | --- | --- | --- |
| Cc1ncc([N+](=O)[O-])n1CCn1cc(Cn2cccn2)nn1 [Compound 4g, 1-(2-(2-methyl-5-nitro-1H-imidazol-1-yl)ethyl)-4-((1H-pyrazol-1-yl)methyl)-1H-1,2,3-triazole] | 4 µg/mL (≈ 13.2 µM) | 4 µg/mL (≈ 13.2 µM) | > 25 µM | 1 µg/mL (≈ 3.31 µM) | 1 µg/mL (≈ 3.31 µM) | 1 to 2 µg/mL (≈ 3.31 to 6.62 µM) |
| Cc1ncc([N+](=O)[O-])n1CCn1cc(-c2ncccn2)nn1 [Compound 4j, 1-(2-(2-methyl-5-nitro-1H-imidazol-1-yl)ethyl)-4-(2-pyrimidinyl)-1H-1,2,3-triazole] | 4 µg/mL (≈ 13.3 µM) | 4 µg/mL (≈ 13.3 µM) | > 25 µM | 2 µg/mL (≈ 6.66 µM) | 2 µg/mL (≈ 6.66 µM) | 2 µg/mL (≈ 6.66 µM) |
| COc1ccc(-c2cn(CCn3c([N+](=O)[O-])cnc3C)nn2)cc1 [Compound 4b, 1-(2-(2-methyl-5-nitro-1H-imidazol-1-yl)ethyl)-4-(4-methoxyphenyl)-1H-1,2,3-triazole] | 4 µg/mL (≈ 12.2 µM) | 4 µg/mL (≈ 12.2 µM) | 4.8 µM | 0.5 µg/mL (≈ 1.52 µM) | 0.5 µg/mL (≈ 1.52 µM) | 0.5 µg/mL (≈ 1.52 µM) |
| Cc1ncc([N+](=O)[O-])n1CCn1cc(CN)nn1.O=C(O)C(F)(F)F [Compound 4t, 1-(2-(2-methyl-5-nitro-1H-imidazol-1-yl)ethyl)-4-(aminomethyl)-1H-1,2,3-triazole trifluoroacetate salt] | > 64 µg/mL | > 64 µg/mL | > 25 µM | > 64 µg/mL | > 64 µg/mL | > 64 µg/mL |
| COC(=O)c1cn(CCn2c([N+](=O)[O-])cnc2C)nn1 [Compound 4f, 1-(2-(2-methyl-5-nitro-1H-imidazol-1-yl)ethyl)-4-(methoxycarbonyl)-1H-1,2,3-triazole] | 4 µg/mL (≈ 14.3 µM) | 4 µg/mL (≈ 14.3 µM) | > 25 µM | 1 µg/mL (≈ 3.57 µM) | 1 µg/mL (≈ 3.57 µM) | 1 µg/mL (≈ 3.57 µM) |
| Cc1ncc([N+](=O)[O-])n1CCn1cc(CN2CCS(=O)(=O)CC2)nn1 [Compound 4o, 1-(2-(2-methyl-5-nitro-1H-imidazol-1-yl)ethyl)-4-((1,1-dioxothiomorpholin-4-yl)methyl)-1H-1,2,3-triazole] | > 64 µg/mL | > 64 µg/mL | > 25 µM | > 64 µg/mL | > 64 µg/mL | > 64 µg/mL |
| Cc1ncc([N+](=O)[O-])n1CCn1cc(C(O)c2ccccc2)nn1 (stereo not drawn) [Compound 4l, 1-(2-(2-methyl-5-nitro-1H-imidazol-1-yl)ethyl)-4-(1-phenyl-1-hydroxylmethyl)-1H-1,2,3-triazole] | 4 µg/mL (≈ 12.2 µM) | 4 µg/mL (≈ 12.2 µM) | > 25 µM | 1 µg/mL (≈ 3.05 µM) | 0.5 to 1 µg/mL (≈ 1.52 to 3.05 µM) | 1 µg/mL (≈ 3.05 µM) |
